# Test system: respiratory epithelial cells
substance,measurement,setting,value
"IL-13: human IL-13 (Peprotech, Inc.) added to the medium at 50 ng/mL to stimulate respiratory epithelial cells","CH25H (32363_at) expression, fold change upon IL-13 stimulation","lot 1, Day 3, IMM method",8.9 fold
same,"CTSC (133_at) expression, fold change upon IL-13 stimulation","lot 1, Day 3, IMM method",4.7 fold
same,CXCL16 (44095_at) expression fold change,"lot 1, Day 3, IMM method",2.5 fold
same,"DD96 (31610_at) expression, fold change upon IL-13 stimulation","lot 1, Day 3, IMM method",11.4 fold
same,"DDIT3 (39420_at) expression, fold change upon IL-13 stimulation","lot 1, Day 3, IMM method",2.3 fold
same,"DKFZP564O0823 (41402_at) expression, fold change upon IL-13 stimulation","lot 1, Day 3, IMM method",6.7 fold
same,DKFZP566J091 (57197_at) expression fold change,"lot 1, Day 3, IMM method",8.2 fold
same,DPYD (38220_at) expression fold change upon IL-13 stimulation,"lot 1, Day 3, IMM method",7.5 fold
same,EMILIN-2 (51628_at) expression fold change,"lot 1, Day 3, IMM method",2.8 fold
same,"FABP4 (38430_at) expression, fold change upon IL-13 stimulation","lot 1, Day 3, IMM method",2.6 fold
same,FETUB (32620_at) expression fold change,"lot 1, Day 3, IMM method",4.1 fold
same,FLJ10261 (43366_at) expression fold change,"lot 1, Day 3, IMM method",8.2 fold
same,FLJ10261 (43963_at) expression fold change,"lot 1, Day 3, IMM method",6.6 fold
same,FLJ22693 (53777_at) expression fold change,"lot 1, Day 3, IMM method",2.1 fold
same,FUT10 (908_at) expression fold change upon IL-13 stimulation,"lot 1, Day 3, IMM method",4 fold
same,"G1P3 (1358_s_at) expression, fold change upon IL-13 stimulation","lot 1, Day 3, IMM method",7.1 fold
same,GBP5 (52615_at) expression fold change,"lot 1, Day 3, IMM method",2.5 fold
same,HDAC9 (37483_at) expression fold change upon IL-13 stimulation,"lot 1, Day 3, IMM method",3.1 fold
same,"HLA-F (37420_i_at) expression, fold change upon IL-13 stimulation","lot 1, Day 3, IMM method",3 fold
same,HLA-F (49203_f_at) expression fold change,"lot 1, Day 3, IMM method",3.1 fold
same,HS3ST1 (41556_s_at) expression fold change upon IL-13 stimulation,"lot 1, Day 3, IMM method",2.2 fold
same,"IFI27 (425_at) expression, fold change upon IL-13 stimulation","lot 1, Day 3, IMM method",4.5 fold
same,IFI27 (48864_at) expression fold change,"lot 1, Day 3, IMM method",4 fold
same,"IFI35 (464_s_at) expression, fold change upon IL-13 stimulation","lot 1, Day 3, IMM method",9.6 fold
same,"IFI44 (37641_at) expression, fold change upon IL-13 stimulation","lot 1, Day 3, IMM method",8 fold
same,"IFIT1 (915_at) expression, fold change upon IL-13 stimulation","lot 1, Day 3, IMM method",9.9 fold
same,"IFIT1 (32814_at) expression, fold change upon IL-13 stimulation","lot 1, Day 3, IMM method",7.6 fold
same,"IFIT4 (38584_at) expression, fold change upon IL-13 stimulation","lot 1, Day 3, IMM method",10.4 fold
same,"IFITM1 (675_at) expression, fold change upon IL-13 stimulation","lot 1, Day 3, IMM method",19.9 fold
same,IL13RA2 (1016_s_at) expression fold change upon IL-13 stimulation,"lot 1, Day 3, IMM method",5.1 fold
same,IL19 (47855_at) expression fold change,"lot 1, Day 3, IMM method",9.1 fold
same,"ILIRL1 (40322_at) expression, fold change upon IL-13 stimulation","lot 1, Day 3, IMM method",2.6 fold
same,IRF7 (36412_s_at) expression fold change,"lot 1, Day 3, IMM method",2.5 fold
same,"ISG15 (1107_s_at) expression, fold change upon IL-13 stimulation","lot 1, Day 3, IMM method",8.2 fold
same,"ISG15 (38432_at) expression, fold change upon IL-13 stimulation","lot 1, Day 3, IMM method",27.9 fold
same,"ISG20 (33304_at) expression, fold change upon IL-13 stimulation","lot 1, Day 3, IMM method",2.4 fold
same,"KIAA0537 (33787_at) expression, fold change upon IL-13 stimulation","lot 1, Day 3, IMM method",5.8 fold
same,KIAA1268 (57050_at) expression fold change,"lot 1, Day 3, IMM method",2.8 fold
same,KRT16 (601_s_at) expression fold change,"lot 1, Day 3, IMM method",4.6 fold
same,"LAMP3 (37168_at) expression, fold change upon IL-13 stimulation","lot 1, Day 3, IMM method",3.6 fold
same,LOC57118 (51085_at) expression fold change,"lot 1, Day 3, IMM method",3 fold
same,"LOC64116 (40456_at) expression, fold change upon IL-13 stimulation","lot 1, Day 3, IMM method",2.9 fold
same,MDA5 (51920_at) expression fold change,"lot 1, Day 3, IMM method",5.2 fold
same,"MMP7 (668_s_at) expression, fold change upon IL-13 stimulation","lot 1, Day 3, IMM method",2.2 fold
same,MX2 (879_at) expression fold change,"lot 1, Day 3, IMM method",8 fold
same,MXI (37014_at) expression fold change,"lot 1, Day 3, IMM method",10.6 fold
same,NK4 (39119_s_at) expression fold change upon IL-13 stimulation,"lot 1, Day 3, IMM method",2 fold
same,NOS2A (1948_f_at) expression fold change upon IL-13 stimulation,"lot 1, Day 3, IMM method",4.3 fold
same,"OAF (39695_at) expression, fold change upon IL-13 stimulation","lot 1, Day 3, IMM method",3.8 fold
same,OAS1 (38388_at) expression fold change upon IL-13 stimulation,"lot 1, Day 3, IMM method",5.5 fold
same,OAS1 (38389_at) expression fold change upon IL-13 stimulation,"lot 1, Day 3, IMM method",5.3 fold
same,OAS2 (39263_at) expression fold change upon IL-13 stimulation,"lot 1, Day 3, IMM method",2.9 fold
same,OSF-2 (1451_s_at) expression fold change upon IL-13 stimulation,"lot 1, Day 3, IMM method",8.8 fold
same,"PAK2 (1560_g_at) expression, fold change upon IL-13 stimulation","lot 1, Day 3, IMM method",−2.1 fold
same,PLS1 (39951_at) expression fold change,"lot 1, Day 3, IMM method",2.9 fold
same,PLSCR1 (32775_r_at) expression fold change upon IL-13 stimulation,"lot 1, Day 3, IMM method",2.6 fold
same,PMCH (32005_at) expression fold change,"lot 1, Day 3, IMM method",3.3 fold
same,PSMB9 (38287_at) expression fold change upon IL-13 stimulation,"lot 1, Day 3, IMM method",2.3 fold
same,RASGRP1 (33291_at) expression fold change,"lot 1, Day 3, IMM method",2.6 fold
same,RIG-1 (59215_at) expression fold change,"lot 1, Day 3, IMM method",8.7 fold
same,SCYB10 (431_at) expression fold change upon IL-13 stimulation,"lot 1, Day 3, IMM method",3.9 fold
same,SCYB11 (35061_at) expression fold change upon IL-13 stimulation,"lot 1, Day 3, IMM method",7.9 fold
same,"SECTM1 (41045_at) expression, fold change upon IL-13 stimulation","lot 1, Day 3, IMM method",5.2 fold
same,SERPINB4 (1549_s_at) expression fold change,"lot 1, Day 3, IMM method",67.4 fold
same,SERPINB6 (34789_at) expression fold change,"lot 1, Day 3, IMM method",2.6 fold
same,SIAT1 (41352_at) expression fold change upon IL-13 stimulation,"lot 1, Day 3, IMM method",13.1 fold
same,"SLC26A4, pendrin (36376_at) expression fold change","lot 1, Day 3, IMM method",25.6 fold
same,"SSI-1 (41592_at) expression, fold change upon IL-13 stimulation","lot 1, Day 3, IMM method",5.8 fold
same,STAT1 (32860_g_at) expression fold change,"lot 1, Day 3, IMM method",2.4 fold
same,STAT1 (33338_at) expression fold change,"lot 1, Day 3, IMM method",5.7 fold
same,TGFB2 (1262_s_at) expression fold change upon IL-13 stimulation,"lot 1, Day 3, IMM method",2 fold
same,TGM2 (38404_at) expression fold change upon IL-13 stimulation,"lot 1, Day 3, IMM method",5 fold
same,"TSPAN-3 (38612_at) expression, fold change upon IL-13 stimulation","lot 1, Day 3, IMM method",2.5 fold
same,UBE2L6 (40505_at) expression fold change upon IL-13 stimulation,"lot 1, Day 3, IMM method",4.2 fold
same,"UFD1L (811_at) expression, fold change upon IL-13 stimulation","lot 1, Day 3, IMM method",2.3 fold
same,WARS (38121_at) expression fold change upon IL-13 stimulation,"lot 1, Day 3, IMM method",2.9 fold
same,"diubiquitin (39959_at) expression, fold change upon IL-13 stimulation","lot 1, Day 3, IMM method",14.4 fold
same,AA045020 (44676_at) expression change,"lot 1, Day 7, AI",−2.9
same,AA053401 (56234_r_at) expression change,"lot 1, Day 7, AI",−3.5
same,AA059445 46293_at expression change,"lot 1, Day 7, AI",−3.7
same,AA059458 (65626_at) expression change,"lot 1, Day 7, AI",−3.4
same,AA079839 (69289_at) expression change,"lot 1, Day 7, AI",−2.2
same,AA151265 (60939_i_at) expression change,"lot 1, Day 7, AI",−2.6
same,AA151265 (60940_r_at) expression change,"lot 1, Day 7, AI",−5.9
same,AA160156 (47578_at) expression change,"lot 1, Day 7, AI",−4.2
same,AA203423 (65699_at) expression change,"lot 1, Day 7, AI",−2.6
same,AA369887 (87539_i_at) expression change,"lot 1, Day 7, AI",−3.6
same,AA398155 (48999_at) expression change,"lot 1, Day 7, AI",−2
same,AA400080 (57282_at) expression change,"lot 1, Day 7, AI",−4.2
same,AA422178 (53747_at) expression change,"lot 1, Day 7, AI",−2.8
same,AA428312 (83988_at) expression change,"lot 1, Day 7, AI",−2
same,AA442232 (59109_at) expression change,"lot 1, Day 7, AI",−2.3
same,AA456099 (59567_at) expression change,"lot 1, Day 7, AI",−2.2
same,AA772055 46104_at expression change,"lot 1, Day 7, AI",−3
same,AA779895 59136_at expression change,"lot 1, Day 7, AI",−2.4
same,ABCC5 1932_at expression change,"lot 1, Day 7, AI",−3.6
same,AF052107 38262_at expression change,"lot 1, Day 7, AI",−4.1
same,AI050855 (64285_at) expression change,"lot 1, Day 7, AI",−3.6
same,AI432375 (49819_at) expression change,"lot 1, Day 7, AI",−4.5
same,AI669212 55436_at expression change,"lot 1, Day 7, AI",−2.5
same,AI740855 (83076_at) expression change,"lot 1, Day 7, AI",−2
same,AI761647 40191_s_at expression change,"lot 1, Day 7, AI",−3
same,AI770116 (70124_at) expression change,"lot 1, Day 7, AI",−2.3
same,AI798733 (64163_at) expression change,"lot 1, Day 7, AI",−3.6
same,AI829641 (84270_at) expression change,"lot 1, Day 7, AI",−3.3
same,AI923984 33546_at expression change,"lot 1, Day 7, AI",−4.6
